These results are taken from patent US20020107401A1, “Production of phosphonopyrazoles” (MONSNTO TECHNOLOGY LLC., priority 2000, published 2002).

In the assay the test system is wheat variety 'OSLO'. The experiment in a line: Chemical hybridizing agent assay for male sterility (male gametocidal activity), foliar spray, seed counts. Format: in vivo. The note with it: Table 2, foliar. As for the experimental part: The compounds of structure 3 and analogs are applied at a rate of 50-1000 μg/plant to cause pollen sterility. The male gametocidal activity is determined on the wheat variety ‘OSLO’, a double-dwarf hard red spring wheat. The wheat seed is planted to a depth of 0.5 to 1 inch (1-2.5 cm) in a 6-inch long (15 cm) conetainer (a cone shaped container, one seed per conetainer). The conetainers are filled with Metromix 200 potting soil supplemented with a slow release fertilizer, Osmocote and Sierra combined at 93 g/cu ft soil for a NPK of 31-20-24. Micromax with micronutrients is added at 17 g/cu ft rate. Fertilizer supplier is Hummerts, Earth City, Mo. 63045. The RLC-4 conetainers are 1×6 inch (2.5×15 cm) with a capacity of 4 cu in. (Stuewe & Sons, Inc., Corvallis, Oreg., 97333-9461). These are loaded into racks of 100 that occupy a 1.0 ft by 1.0 ft area. After seeding, the racks are placed in growth chambers with 14/10 hour day/night cycle at 18° C. These chambers are equipped with metal halide lamps that deliver approximately 300 μE/m^2/sec. Humidity is maintained at 50%, and plants are watered as needed. Approximately six weeks after seeding, wheat plants are selected for chemical application at or just prior to flag-leaf emergence from the boot (Feekes Scale 7.5-8.0) (Large, 1954. Plant Pathology 3:128-129). Plants are placed in a rack containing cardboard dividers to prevent each from being cross contaminated by an adjacent spray. The following procedures are used to evaluate the activity of the compounds of the invention for inducing male sterility in cereals. The plant heights vary and as uniformity is required for chemical application, the top 0-10 cm are removed by excision, such that the plant height is flush with the top of the divider. Prior to application, a 50 mL solution of DMSO (dimethylsulfoxide) containing the chemical hybridizing agent is diluted with 150 mL of water containing 1% SILWET L-77 surfactant (Witco Corp., Greenwich, Conn. 06831-2559) plus 2% humectant (glycerin, supplied by VWR Scientific Products Co.). The formulated chemicals are applied foliarly as an atomized spray onto the plants. After application, the plants are moved into growth chambers and allowed to grow until the heads emerge from the boot. Prior to anther extrusion (approximately 10 to 14 days after treatment), the plants are placed back into dividers in order to isolate the seed heads and to prevent cross-pollination. The plants are moved to a greenhouse, which has similar environmental conditions as the growth chambers. Approximately one week later (3 weeks after treatment (WAT) and at anther extrusion), open head morphology ratings are initiated. Plants are rated four times over a period of eight days (Table 2). The chemical hybridizing agent Genesis® (a registered Trade Mark of the Monsanto Co) is used as the positive control and for comparative purposes as to the rate of application and the efficacy as determined by percent sterility. The negative control is treatment of the wheat plants with the compounds making up the formulation of surfactant and humectant without the chemical compositions being assayed as chemical hybridizing agents. The data in Table 2 is expressed as % Sterility=(1-(Ave. normalized seed counts of sample/Ave. normalized seed counts of controls))*100 with the treatments comprising foliar application and rate titration at Feekes stage 8, across five replicates. Approximately two weeks after open head ratings are completed (six WAT), seed counts are collected.

For `COP(=O)(OC)c1c(-c2ccccc2)nn(-c2cc(C)cc(C)c2)c1O` [Compound 10b, Dimethyl[1-(3,5-dimethylphenyl)-5-hydroxy-3-phenyl-1H-pyrazol-4-yl]phosphonate], the “Sterility (%)” value runs as follows: (rate 50 μg/plant, Feekes 8) 5%; (rate 125 μg/plant, Feekes 8) 0%; (rate 250 μg/plant, Feekes 8) 11%; (rate 500 μg/plant, Feekes 8) 33%; (rate 1000 μg/plant, Feekes 8) 45%.
Consider “methyl potassium[4-chlorophenyl-3-hydroxy-1H-pyrazol-4-yl]phosphonate [Compound 3m]”, for which the “Sterility (%)” value runs as follows: (rate 50 μg/plant, Feekes 6) 23%; (rate 50 μg/plant, Feekes 8) 28%; (rate 125 μg/plant, Feekes 6) 0%; (rate 125 μg/plant, Feekes 8) 20%; (rate 250 μg/plant, Feekes 6) 31%; (rate 250 μg/plant, Feekes 8) 16%. Also, the “Sterility (%)” value is, setting by setting: (rate 500 μg/plant, Feekes 6) 43%; (rate 500 μg/plant, Feekes 8) 15%.
